Measured values from the kinase profiling compilation of Christmann-Franck et al. (2016).
Each block holds one compound with its values, some of them ahead of it.

Columns and labels:
Experiment in all cases: radiometric filter-binding kinase assay
[1] = tested on: AKT1 (human), P31749 [S473D]
[2] = target: AURKA (human) (UniProt O14965)
[3] = target: BRSK1 (human) (UniProt Q8TDC3)
[4] = target: BRSK2 (human) (UniProt Q8IWQ3)
[5] = target: BTK (human) (UniProt Q06187)
[6] = target: CSK (human) (UniProt P41240)
[7] = target: EEF2K (human) (UniProt O00418)
Chain of EEF2K (human) (O00418 whole entry, looked up): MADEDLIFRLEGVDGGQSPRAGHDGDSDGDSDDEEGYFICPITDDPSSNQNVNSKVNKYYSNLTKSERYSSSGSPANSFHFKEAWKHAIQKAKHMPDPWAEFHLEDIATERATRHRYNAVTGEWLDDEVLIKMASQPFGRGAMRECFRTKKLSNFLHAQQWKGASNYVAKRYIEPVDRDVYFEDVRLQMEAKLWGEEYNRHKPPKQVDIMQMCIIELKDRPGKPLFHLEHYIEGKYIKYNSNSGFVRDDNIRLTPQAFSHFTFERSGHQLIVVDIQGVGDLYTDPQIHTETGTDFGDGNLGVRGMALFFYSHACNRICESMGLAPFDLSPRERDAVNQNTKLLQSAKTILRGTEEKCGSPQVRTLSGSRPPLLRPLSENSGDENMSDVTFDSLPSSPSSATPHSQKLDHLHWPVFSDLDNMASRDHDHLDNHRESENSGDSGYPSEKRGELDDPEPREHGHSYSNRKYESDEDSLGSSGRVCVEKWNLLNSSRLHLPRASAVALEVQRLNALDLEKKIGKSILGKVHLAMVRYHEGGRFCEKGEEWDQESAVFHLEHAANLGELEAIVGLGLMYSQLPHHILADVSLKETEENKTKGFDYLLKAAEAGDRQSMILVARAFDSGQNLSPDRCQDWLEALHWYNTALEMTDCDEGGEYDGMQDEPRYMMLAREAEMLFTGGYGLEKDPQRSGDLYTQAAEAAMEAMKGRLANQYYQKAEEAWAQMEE

[8] = target: EPHA4 (human) (UniProt P54764)
[9] = target: ERBB4 (human) (UniProt Q15303)
[10] = target: FGFR1 (human) (UniProt P11362)
[11] = target: GSK3B (human) (UniProt P49841)
Chain of GSK3B (human) (P49841 whole entry, looked up): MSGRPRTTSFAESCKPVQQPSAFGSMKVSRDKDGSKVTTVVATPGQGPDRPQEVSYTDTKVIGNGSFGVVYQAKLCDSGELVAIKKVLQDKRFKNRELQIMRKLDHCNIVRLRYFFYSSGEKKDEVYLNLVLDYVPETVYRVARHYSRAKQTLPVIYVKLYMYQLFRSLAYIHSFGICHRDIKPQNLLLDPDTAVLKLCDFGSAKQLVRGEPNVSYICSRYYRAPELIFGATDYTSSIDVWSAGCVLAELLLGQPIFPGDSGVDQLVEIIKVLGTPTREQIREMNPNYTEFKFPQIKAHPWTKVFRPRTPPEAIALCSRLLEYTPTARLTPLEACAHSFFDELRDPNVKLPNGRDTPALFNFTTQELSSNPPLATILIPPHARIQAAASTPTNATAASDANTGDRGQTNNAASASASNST

[12] = target: HIPK1 (human) (UniProt Q86Z02)
[13] = target: HIPK3 (human) (UniProt Q9H422)
Chain of HIPK3 (human) (Q9H422 whole entry, looked up): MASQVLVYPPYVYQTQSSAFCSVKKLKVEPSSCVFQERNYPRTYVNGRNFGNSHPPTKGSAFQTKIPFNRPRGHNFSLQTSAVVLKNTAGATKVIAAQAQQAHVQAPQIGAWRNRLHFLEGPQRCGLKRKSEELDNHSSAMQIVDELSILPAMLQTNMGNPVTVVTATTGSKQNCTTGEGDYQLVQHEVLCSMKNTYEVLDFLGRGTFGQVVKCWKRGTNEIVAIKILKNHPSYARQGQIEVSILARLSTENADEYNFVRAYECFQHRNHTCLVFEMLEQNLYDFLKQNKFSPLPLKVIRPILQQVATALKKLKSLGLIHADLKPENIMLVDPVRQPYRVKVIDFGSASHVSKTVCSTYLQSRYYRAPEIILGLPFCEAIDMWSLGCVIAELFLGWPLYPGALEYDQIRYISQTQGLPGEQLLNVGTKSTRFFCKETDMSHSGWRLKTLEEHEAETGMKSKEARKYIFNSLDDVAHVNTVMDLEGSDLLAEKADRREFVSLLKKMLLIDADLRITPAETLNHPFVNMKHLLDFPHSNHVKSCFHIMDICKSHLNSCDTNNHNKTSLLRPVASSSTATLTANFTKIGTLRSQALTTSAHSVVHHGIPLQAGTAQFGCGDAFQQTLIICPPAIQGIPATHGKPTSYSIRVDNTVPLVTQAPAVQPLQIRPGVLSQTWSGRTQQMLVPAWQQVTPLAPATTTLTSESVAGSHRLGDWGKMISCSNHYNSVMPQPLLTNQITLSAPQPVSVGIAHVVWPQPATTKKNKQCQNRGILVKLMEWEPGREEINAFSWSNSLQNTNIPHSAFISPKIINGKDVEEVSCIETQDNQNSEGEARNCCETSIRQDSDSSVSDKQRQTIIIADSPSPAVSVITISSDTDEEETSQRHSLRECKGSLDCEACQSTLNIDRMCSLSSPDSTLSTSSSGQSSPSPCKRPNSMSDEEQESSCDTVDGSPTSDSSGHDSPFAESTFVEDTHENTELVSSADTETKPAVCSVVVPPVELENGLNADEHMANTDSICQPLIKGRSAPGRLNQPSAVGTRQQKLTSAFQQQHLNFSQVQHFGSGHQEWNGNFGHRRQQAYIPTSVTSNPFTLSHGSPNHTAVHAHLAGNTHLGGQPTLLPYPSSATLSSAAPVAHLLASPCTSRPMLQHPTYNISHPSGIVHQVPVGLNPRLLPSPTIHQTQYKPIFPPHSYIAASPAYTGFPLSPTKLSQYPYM

[14] = target: IKBKB (human) (UniProt O14920)
[15] = target: MAP2K2 (human) (UniProt P36507)
[16] = target: MAP2K6 (human) (UniProt P52564)
[17] = target: MAP3K1 (human) (UniProt Q13233)
[18] = target: MAP3K5 (human) (UniProt Q99683)
[19] = target: MAPK1 (human) (UniProt P28482)
[20] = target: MAPK15 (human) (UniProt Q8TD08); conditions: compound 100.0 µM
[21] = target: MAPK3 (human) (UniProt P27361)
[22] = target: MAPK8 (human) (UniProt P45983)
[23] = target: MAPK9 (human) (UniProt P45984)
Chain of MAPK9 (human) (P45984 whole entry, looked up): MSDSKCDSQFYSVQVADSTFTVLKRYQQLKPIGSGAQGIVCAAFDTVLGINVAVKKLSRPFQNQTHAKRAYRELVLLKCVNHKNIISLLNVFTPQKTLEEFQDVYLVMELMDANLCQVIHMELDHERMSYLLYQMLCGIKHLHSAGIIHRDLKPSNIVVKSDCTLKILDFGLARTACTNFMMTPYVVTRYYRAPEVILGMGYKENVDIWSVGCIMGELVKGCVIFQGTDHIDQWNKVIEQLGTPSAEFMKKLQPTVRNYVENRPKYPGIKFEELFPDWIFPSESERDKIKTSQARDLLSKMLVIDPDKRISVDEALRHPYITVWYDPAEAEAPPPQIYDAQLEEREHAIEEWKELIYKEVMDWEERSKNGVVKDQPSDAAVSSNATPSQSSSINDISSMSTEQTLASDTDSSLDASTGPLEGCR

[24] = target: MAPKAPK3 (human) (UniProt Q16644)
[25] = target: MKNK2 (human) (UniProt Q9HBH9)
[26] = tested on: PAK2 (human), Q13177 [T402E]
[27] = target: PAK7 (human) (UniProt Q9P286)
Chain of PAK7 (human) (Q9P286 whole entry, looked up): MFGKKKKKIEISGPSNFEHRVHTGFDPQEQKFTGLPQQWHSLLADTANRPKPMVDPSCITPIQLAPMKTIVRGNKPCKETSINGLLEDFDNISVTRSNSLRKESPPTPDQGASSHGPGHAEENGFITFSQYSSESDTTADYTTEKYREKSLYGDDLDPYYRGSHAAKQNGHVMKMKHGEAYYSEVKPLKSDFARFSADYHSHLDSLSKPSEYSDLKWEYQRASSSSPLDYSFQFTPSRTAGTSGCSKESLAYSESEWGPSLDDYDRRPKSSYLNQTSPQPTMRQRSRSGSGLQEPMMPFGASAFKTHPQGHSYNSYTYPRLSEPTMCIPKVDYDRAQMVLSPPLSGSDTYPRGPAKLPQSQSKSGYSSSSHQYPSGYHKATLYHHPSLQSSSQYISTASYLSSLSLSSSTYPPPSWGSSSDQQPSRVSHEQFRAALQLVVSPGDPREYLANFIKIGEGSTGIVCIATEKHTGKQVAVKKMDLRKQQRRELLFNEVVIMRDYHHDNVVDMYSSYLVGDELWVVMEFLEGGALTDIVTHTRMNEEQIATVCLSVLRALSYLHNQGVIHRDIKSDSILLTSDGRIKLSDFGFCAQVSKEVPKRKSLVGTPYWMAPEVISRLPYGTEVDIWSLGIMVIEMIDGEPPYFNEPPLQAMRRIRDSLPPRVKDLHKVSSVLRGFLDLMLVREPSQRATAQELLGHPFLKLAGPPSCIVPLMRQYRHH

[28] = target: PLK1 (human) (UniProt P53350)
[29] = target: RPS6KA3 KD1 KD2 (human) (UniProt P51812)
[30] = target: RPS6KA5 KD1 KD2 (human) (UniProt O75582)
[31] = target: SRPK1 (human) (UniProt Q96SB4)
[32] = target: STK11 CAB39 STRADA (human) (UniProt Q9Y376+Q7RTN6+Q15831)
Chain of STK11 CAB39 STRADA (human) (Q15831 whole entry, looked up): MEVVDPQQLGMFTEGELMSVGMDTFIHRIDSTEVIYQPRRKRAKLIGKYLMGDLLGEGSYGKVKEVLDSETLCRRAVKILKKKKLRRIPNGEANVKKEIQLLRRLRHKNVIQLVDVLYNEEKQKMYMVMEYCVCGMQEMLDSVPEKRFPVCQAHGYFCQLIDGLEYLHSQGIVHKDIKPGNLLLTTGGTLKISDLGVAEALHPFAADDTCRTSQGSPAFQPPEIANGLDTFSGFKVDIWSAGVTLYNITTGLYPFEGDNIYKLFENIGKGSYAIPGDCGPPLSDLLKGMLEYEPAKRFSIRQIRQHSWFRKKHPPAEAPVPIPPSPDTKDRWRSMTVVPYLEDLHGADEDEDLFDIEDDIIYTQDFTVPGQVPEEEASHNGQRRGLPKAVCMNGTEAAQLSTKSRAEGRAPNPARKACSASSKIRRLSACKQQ
Chain of STK11 CAB39 STRADA (human) (Q7RTN6 whole entry, looked up): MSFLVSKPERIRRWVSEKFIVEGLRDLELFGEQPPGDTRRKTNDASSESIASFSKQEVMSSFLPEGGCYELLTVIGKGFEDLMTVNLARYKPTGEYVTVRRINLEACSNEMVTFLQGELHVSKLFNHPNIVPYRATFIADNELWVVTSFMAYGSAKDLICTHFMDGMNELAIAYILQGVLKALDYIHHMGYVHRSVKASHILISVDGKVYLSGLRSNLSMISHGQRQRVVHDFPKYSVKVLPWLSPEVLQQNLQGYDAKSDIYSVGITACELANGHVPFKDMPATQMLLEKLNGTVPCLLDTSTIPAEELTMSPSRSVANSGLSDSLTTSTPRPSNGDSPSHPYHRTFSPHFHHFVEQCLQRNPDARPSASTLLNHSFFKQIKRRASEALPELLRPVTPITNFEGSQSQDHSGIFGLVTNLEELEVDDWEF
Chain of STK11 CAB39 STRADA (human) (Q9Y376 whole entry, looked up): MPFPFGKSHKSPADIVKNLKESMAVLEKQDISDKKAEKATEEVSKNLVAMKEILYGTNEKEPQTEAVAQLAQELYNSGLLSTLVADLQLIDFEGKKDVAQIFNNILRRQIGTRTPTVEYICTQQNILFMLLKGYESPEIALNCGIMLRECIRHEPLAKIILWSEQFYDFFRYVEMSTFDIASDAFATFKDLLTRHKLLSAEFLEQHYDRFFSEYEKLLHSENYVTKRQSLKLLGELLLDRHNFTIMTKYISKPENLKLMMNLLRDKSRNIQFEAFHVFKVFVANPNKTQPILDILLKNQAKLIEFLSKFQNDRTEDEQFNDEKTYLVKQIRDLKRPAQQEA

[33] = target: TBK1 (human) (UniProt Q9UHD2)
[34] = target: CSNK1D (human) (UniProt P48730)
[35] = target: NEK6 (human) (UniProt Q9HC98)
Chain of NEK6 (human) (Q9HC98 whole entry, looked up): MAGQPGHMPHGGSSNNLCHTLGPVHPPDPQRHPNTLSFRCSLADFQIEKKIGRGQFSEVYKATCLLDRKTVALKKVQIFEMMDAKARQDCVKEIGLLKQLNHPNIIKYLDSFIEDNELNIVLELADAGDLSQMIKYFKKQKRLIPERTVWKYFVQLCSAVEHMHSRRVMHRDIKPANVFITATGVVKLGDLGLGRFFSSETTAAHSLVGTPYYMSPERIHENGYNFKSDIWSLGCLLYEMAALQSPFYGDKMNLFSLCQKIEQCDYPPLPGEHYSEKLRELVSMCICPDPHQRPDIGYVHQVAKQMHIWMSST

- residual activity ([1]; compound 100.0 µM): 108%
- residual activity ([2]; compound 100.0 µM): 32%
- residual activity ([3]; compound 100.0 µM): 76%
- residual activity ([4]; compound 100.0 µM): 46%
- residual activity ([5]; compound 100.0 µM): 102%
- residual activity ([6]; compound 100.0 µM): 132%
- residual activity ([7]; compound 100.0 µM): 92%
- residual activity ([8]; compound 100.0 µM): 92%
- residual activity ([9]; compound 100.0 µM): 99%
- residual activity ([10]; compound 100.0 µM): 59%
- residual activity ([11]; compound 100.0 µM): 31%
- residual activity ([12]; compound 100.0 µM): 94%
- residual activity ([13]; compound 100.0 µM): 74%
- residual activity ([14]; compound 100.0 µM): 97%
- residual activity ([15]; compound 100.0 µM): 109%
- residual activity ([16]; compound 100.0 µM): 113%
- residual activity ([17]; compound 100.0 µM): 88%
- residual activity ([18]; compound 100.0 µM): 151%
- residual activity ([19]; compound 100.0 µM): 134%
- residual activity ([21]; compound 100.0 µM): 98%
- residual activity ([22]; compound 100.0 µM): 113%
- residual activity ([23]; compound 100.0 µM): 112%
- residual activity ([24]; compound 100.0 µM): 62%
- residual activity ([25]; compound 100.0 µM): 100%
- residual activity ([26]; compound 100.0 µM): 100%
- residual activity ([27]; compound 100.0 µM): 87%
- residual activity ([28]; compound 100.0 µM): 79%
- residual activity ([29]; compound 100.0 µM): 80%
- residual activity ([30]; compound 100.0 µM): 84%
- residual activity ([31]; compound 100.0 µM): 59%
- residual activity ([32]; compound 100.0 µM): 126%
- residual activity ([33]; compound 100.0 µM): 94%
SMILES: Cc1cc(N=Nc2cc(S(=O)(=O)O)c(C)cc2C)c(N)cc1O
- residual activity [20]: 65%

- residual activity ([1]; compound 1.0 µM): 97%
- residual activity ([1]; compound 10.0 µM): 95%
- residual activity ([2]; compound 10.0 µM): 94%
- residual activity ([3]; compound 1.0 µM): 94%
- residual activity ([3]; compound 10.0 µM): 91%
- residual activity ([4]; compound 1.0 µM): 100%
- residual activity ([4]; compound 10.0 µM): 86%
- residual activity ([5]; compound 1.0 µM): 103%
- residual activity ([5]; compound 10.0 µM): 101%
- residual activity ([6]; compound 1.0 µM): 148%
- residual activity ([6]; compound 10.0 µM): 119%
- residual activity ([34]; compound 1.0 µM): 79%
- residual activity ([34]; compound 10.0 µM): 93%
- residual activity ([7]; compound 1.0 µM): 102%
- residual activity ([7]; compound 10.0 µM): 95%
- residual activity ([8]; compound 10.0 µM): 107%
- residual activity ([9]; compound 1.0 µM): 102%
- residual activity ([9]; compound 10.0 µM): 103%
- residual activity ([10]; compound 10.0 µM): 103%
- residual activity ([11]; compound 1.0 µM): 90%
- residual activity ([11]; compound 10.0 µM): 74%
- residual activity ([12]; compound 1.0 µM): 90%
- residual activity ([12]; compound 10.0 µM): 95%
- residual activity ([13]; compound 1.0 µM): 108%
- residual activity ([13]; compound 10.0 µM): 119%
- residual activity ([14]; compound 1.0 µM): 100%
- residual activity ([14]; compound 10.0 µM): 99%
- residual activity ([15]; compound 1.0 µM): 77%
- residual activity ([15]; compound 10.0 µM): 73%
- residual activity ([16]; compound 1.0 µM): 85%
- residual activity ([16]; compound 10.0 µM): 81%
- residual activity ([17]; compound 1.0 µM): 106%
- residual activity ([17]; compound 10.0 µM): 96%
- residual activity ([18]; compound 10.0 µM): 127%
- residual activity ([19]; compound 1.0 µM): 105%
- residual activity ([21]; compound 10.0 µM): 95%
- residual activity ([22]; compound 1.0 µM): 95%
- residual activity ([22]; compound 10.0 µM): 103%
- residual activity ([23]; compound 1.0 µM): 90%
- residual activity ([23]; compound 10.0 µM): 86%
- residual activity ([24]; compound 1.0 µM): 102%
- residual activity ([24]; compound 10.0 µM): 95%
- residual activity ([25]; compound 1.0 µM): 105%
- residual activity ([25]; compound 10.0 µM): 91%
- residual activity ([35]; compound 1.0 µM): 100%
- residual activity ([35]; compound 10.0 µM): 99%
- residual activity ([26]; compound 1.0 µM): 95%
- residual activity ([26]; compound 10.0 µM): 90%
- residual activity ([27]; compound 1.0 µM): 101%
- residual activity ([27]; compound 10.0 µM): 88%
- residual activity ([28]; compound 1.0 µM): 94%
- residual activity ([28]; compound 10.0 µM): 91%
- residual activity ([29]; compound 1.0 µM): 99%
- residual activity ([29]; compound 10.0 µM): 92%
- residual activity ([30]; compound 1.0 µM): 94%
- residual activity ([30]; compound 10.0 µM): 102%
- residual activity ([31]; compound 1.0 µM): 99%
- residual activity ([31]; compound 10.0 µM): 89%
- residual activity ([32]; compound 1.0 µM): 86%
- residual activity ([32]; compound 10.0 µM): 85%
- residual activity ([33]; compound 1.0 µM): 127%
SMILES: Cc1nc(-c2ccc(OCC(C)C)c(C#N)c2)sc1C(=O)O
